Results taken from patent US20200392158A1, “INHIBITORS OF LEUCINE RICH REPEAT KINASE 2” (GLAXOSMITHKLINE INTELLECTUAL PROPERTY DEVELOPMENT LIMITED, priority 2017, published 2020).

Assays:
[1] = biological target: T1, full length G2019 human LRRK2 (Homo sapiens, UniProt Q5S007, R50H); experiment: Full length G2019 human LRRK2 inhibition mass spectrometry assay; type: biochemical; settings: LRRKtide to phospho-LRRKtide conversion, RapidFire MS, 2 mM ATP
T1 construct: made in house; host or cells: HEK293 6E cells transduced with BacMam virus (virus generated in Sf9 cells)
T1 sequence (Q5S007 with tags, fused parts or gaps R50H): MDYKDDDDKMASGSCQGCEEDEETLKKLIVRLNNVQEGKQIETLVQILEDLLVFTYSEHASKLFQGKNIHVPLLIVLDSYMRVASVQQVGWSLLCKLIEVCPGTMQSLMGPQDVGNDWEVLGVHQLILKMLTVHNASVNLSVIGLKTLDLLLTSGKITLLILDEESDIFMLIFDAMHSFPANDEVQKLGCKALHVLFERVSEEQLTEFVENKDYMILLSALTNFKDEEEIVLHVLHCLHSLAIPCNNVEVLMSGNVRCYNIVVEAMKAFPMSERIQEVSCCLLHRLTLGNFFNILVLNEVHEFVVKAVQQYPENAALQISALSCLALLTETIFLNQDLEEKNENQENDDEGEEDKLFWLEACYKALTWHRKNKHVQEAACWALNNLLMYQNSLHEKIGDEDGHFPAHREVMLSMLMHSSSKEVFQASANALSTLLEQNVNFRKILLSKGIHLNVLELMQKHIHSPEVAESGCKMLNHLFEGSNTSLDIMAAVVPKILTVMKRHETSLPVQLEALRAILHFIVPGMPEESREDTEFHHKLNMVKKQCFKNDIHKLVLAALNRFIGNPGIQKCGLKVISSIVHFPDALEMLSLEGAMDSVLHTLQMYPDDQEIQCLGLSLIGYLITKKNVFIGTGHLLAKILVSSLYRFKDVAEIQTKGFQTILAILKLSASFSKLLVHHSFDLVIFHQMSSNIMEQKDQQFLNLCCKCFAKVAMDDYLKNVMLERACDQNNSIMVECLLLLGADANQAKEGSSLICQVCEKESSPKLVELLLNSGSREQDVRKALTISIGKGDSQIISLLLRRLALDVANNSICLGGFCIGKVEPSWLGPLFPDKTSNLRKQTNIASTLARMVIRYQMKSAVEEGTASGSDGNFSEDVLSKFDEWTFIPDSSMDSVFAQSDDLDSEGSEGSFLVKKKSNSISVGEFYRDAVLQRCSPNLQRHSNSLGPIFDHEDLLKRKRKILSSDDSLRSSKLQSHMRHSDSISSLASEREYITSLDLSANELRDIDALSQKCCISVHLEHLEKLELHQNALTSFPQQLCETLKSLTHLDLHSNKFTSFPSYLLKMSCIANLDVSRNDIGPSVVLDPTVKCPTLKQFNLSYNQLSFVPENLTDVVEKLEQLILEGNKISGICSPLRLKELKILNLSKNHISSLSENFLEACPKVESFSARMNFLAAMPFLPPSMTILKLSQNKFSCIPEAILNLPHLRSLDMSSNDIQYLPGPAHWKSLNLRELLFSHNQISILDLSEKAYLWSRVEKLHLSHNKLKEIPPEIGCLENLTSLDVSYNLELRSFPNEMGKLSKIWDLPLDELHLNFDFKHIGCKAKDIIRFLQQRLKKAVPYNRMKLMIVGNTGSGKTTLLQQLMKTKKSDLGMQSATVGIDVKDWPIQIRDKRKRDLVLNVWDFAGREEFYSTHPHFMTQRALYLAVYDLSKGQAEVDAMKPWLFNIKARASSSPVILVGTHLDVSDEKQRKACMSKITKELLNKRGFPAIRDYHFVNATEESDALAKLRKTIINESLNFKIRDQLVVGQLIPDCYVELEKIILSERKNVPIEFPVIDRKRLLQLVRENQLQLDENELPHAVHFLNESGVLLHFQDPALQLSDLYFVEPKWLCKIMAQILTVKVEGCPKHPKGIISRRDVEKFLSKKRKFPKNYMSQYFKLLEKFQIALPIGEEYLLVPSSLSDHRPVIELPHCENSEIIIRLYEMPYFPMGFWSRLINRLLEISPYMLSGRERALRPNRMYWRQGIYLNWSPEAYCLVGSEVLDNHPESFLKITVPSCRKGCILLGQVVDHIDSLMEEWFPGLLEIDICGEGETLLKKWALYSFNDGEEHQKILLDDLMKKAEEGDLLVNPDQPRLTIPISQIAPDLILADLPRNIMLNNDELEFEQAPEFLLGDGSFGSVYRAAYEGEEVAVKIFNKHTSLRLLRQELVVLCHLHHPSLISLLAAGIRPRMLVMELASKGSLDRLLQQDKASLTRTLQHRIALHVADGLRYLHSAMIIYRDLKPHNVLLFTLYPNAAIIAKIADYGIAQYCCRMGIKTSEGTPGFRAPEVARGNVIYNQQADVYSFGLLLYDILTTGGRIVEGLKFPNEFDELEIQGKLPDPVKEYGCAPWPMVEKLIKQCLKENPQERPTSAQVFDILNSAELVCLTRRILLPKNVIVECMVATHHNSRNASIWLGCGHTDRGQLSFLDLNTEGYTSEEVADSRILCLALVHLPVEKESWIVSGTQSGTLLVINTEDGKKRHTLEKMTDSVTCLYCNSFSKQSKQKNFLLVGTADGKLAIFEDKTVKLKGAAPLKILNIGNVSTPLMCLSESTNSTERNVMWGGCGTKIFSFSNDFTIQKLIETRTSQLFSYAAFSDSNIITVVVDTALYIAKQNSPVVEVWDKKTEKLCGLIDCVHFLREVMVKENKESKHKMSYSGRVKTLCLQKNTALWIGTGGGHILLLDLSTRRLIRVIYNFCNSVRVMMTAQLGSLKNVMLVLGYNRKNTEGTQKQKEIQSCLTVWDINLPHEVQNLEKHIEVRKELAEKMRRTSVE
How it was run: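 Inhibition taken as reduced LRRKtide phosphorylation, quantified by RapidFire-coupled triple-quadrupole MS as product/(product+substrate) peak area. Reaction: 2 mM ATP, 25 μM peptide, ~25 nM full-length G2019 Flag-LRRK2, Hepes pH 7.2 buffer, room temperature for 1 h. 11-point 1-in-4 dilutions from 100 μM; logistic fit gives IC50, reported as pIC50.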

[2] = biological target: T2, LRRK2 kinase in SH-SY5Y cells over-expressing recombinant full length LRRK2 (Homo sapiens, UniProt Q5S007); experiment: Recombinant cellular LRRK2 AlphaScreen assay (LRRK2 Ser935 phosphorylation); type: cell-based; settings: 60 min
T2 construct: A BacMam virus expressing full length recombinant LRRK2 was purchased from Invitrogen; host or cells: SH-SY5Y human neuroblastoma cells transduced with BacMam LRRK2 virus
T2 sequence (Q5S007 whole entry): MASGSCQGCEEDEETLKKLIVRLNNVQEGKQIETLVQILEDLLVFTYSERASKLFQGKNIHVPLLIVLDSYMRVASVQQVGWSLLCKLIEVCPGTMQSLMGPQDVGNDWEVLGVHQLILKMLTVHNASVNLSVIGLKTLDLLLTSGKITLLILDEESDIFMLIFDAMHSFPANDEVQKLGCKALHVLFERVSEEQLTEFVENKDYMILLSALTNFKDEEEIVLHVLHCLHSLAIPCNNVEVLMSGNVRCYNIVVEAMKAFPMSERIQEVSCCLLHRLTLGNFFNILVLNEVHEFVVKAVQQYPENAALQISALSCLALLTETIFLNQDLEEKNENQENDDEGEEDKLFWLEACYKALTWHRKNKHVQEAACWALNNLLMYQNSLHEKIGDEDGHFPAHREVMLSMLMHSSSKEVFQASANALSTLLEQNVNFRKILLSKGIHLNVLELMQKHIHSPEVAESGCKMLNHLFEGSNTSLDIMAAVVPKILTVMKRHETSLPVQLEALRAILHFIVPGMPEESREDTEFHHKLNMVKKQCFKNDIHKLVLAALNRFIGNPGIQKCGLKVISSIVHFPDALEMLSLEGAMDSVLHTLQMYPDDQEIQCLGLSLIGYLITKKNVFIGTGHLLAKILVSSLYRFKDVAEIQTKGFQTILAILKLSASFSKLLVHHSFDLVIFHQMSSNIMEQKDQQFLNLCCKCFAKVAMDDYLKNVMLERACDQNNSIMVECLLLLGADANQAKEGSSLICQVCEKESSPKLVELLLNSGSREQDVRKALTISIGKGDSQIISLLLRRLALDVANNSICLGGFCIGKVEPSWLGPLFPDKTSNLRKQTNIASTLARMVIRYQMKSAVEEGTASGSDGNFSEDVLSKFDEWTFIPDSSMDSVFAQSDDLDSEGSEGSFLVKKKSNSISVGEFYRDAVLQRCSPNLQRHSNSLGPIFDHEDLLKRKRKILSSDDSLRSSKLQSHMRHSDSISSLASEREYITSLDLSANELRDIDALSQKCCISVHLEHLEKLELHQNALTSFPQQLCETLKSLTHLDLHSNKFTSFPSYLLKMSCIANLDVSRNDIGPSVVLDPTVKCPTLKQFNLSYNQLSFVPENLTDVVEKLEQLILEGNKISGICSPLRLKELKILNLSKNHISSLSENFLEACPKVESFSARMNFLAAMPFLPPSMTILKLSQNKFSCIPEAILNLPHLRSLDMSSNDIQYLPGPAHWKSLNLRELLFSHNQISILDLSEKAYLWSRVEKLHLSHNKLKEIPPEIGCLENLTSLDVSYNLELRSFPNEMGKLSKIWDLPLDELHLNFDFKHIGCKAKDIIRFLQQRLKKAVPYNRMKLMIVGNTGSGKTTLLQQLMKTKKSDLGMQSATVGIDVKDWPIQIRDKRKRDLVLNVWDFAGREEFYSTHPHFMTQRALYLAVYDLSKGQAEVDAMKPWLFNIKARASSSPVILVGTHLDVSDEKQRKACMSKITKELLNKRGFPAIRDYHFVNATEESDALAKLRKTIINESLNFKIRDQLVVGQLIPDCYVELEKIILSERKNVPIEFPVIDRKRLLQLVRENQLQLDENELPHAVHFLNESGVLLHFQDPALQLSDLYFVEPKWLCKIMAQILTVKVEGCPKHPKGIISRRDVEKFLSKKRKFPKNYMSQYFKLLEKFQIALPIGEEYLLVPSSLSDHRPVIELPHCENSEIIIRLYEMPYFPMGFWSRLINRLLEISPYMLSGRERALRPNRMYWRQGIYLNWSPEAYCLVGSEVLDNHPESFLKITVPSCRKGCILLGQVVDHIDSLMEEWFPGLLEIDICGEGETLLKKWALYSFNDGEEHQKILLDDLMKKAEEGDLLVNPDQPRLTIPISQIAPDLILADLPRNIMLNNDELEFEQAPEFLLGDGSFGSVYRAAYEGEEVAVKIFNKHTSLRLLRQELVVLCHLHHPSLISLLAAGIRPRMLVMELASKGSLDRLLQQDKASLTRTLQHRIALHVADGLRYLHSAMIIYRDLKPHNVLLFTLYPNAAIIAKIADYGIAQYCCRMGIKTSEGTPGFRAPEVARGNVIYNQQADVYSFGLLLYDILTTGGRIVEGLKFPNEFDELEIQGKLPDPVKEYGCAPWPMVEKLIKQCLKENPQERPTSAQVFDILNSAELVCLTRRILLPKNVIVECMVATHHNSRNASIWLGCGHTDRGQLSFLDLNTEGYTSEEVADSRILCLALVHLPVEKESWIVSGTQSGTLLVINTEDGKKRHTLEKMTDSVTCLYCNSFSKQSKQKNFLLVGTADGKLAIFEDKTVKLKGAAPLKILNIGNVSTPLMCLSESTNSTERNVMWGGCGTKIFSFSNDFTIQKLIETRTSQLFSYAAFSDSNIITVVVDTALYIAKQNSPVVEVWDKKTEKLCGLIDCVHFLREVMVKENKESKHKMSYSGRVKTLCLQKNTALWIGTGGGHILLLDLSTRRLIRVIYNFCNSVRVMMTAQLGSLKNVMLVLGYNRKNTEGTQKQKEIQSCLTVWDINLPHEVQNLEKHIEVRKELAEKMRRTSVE
How it was run: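 Read-out is AlphaScreen of LRRK2 pSer935 over total LRRK2 in lysates of SH-SY5Y cells over-expressing full-length LRRK2 via BacMam (24 h transduction). Cells were exposed 60 min at 37 °C to an 11-point 1-in-4 dilution series starting at 10 uM; sigmoidal fit.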

Row | SMILES | IC50 [1] [nM] | IC50 [2] [nM]
1 | Cc1c2c(nn1C1CCN(C3COC3)CC1)OCC[C@@H](C)Nc1nc(ncc1Cl)N2 [E65, (11R)-14-chloro-4,11-dimethyl-5-[1-(oxetan-3-yl)piperidin-4-yl]-8-oxa-2,5,6,12,16,17-hexaazatricyclo[11.3.1.0^3,7]heptadeca-1(16),3,6,13(17),14-pentaene] | ≤ 100 | ≤ 100
2 | Cc1c2c(nn1C1COC1)OCCCNc1nc(ncc1Br)N2 [E66, 14-Bromo-4-methyl-5-(oxetan-3-yl)-8-oxa-2,5,6,12,16,17-hexaazatricyclo[11.3.1.0^3,7]heptadeca-1(16),3,6,13(17),14-pentaene] | ≤ 100 | ≤ 100
3 | Cc1c2c(nn1C1CC(N3CCOCC3)C1)OCC[C@@H](C)Nc1nc(ncc1Cl)N2 (stereo partly drawn) [E106, (11R)-14-chloro-4,11-dimethyl-5-[3-(morpholin-4-yl)cyclobutyl]-8-oxa-2,5,6,12,16,17-hexaazatricyclo[11.3.1.0^3,7]heptadeca-1(16),3,6,13(17),14-pentaene] | ≤ 100 | ≤ 100
4 | Cc1c2c(nn1C1CN(C3COC3)C1)OCC[C@@H](C)Nc1nc(ncc1Cl)N2 [E107, (11R)-14-chloro-4,11-dimethyl-5-[1-(oxetan-3-yl)azetidin-3-yl]-8-oxa-2,5,6,12,16,17-hexaazatricyclo[11.3.1.0^3,7]heptadeca-1(16),3,6,13(17),14-pentaene] | ≤ 100 | ≤ 100
5 | Cc1c2c(nn1C1CCOCC1)OCCCCNc1nc(ncc1Cl)N2 [E109, 15-Chloro-4-methyl-5-(oxan-4-yl)-8-oxa-2,5,6,13,17,18-hexaaza tricyclo[12.3.1.0^3,7]octadeca-1(17),3,6,14(18),15-pentaene] | ≤ 100 | ≤ 100
6 | Cc1c2c(nn1C1CCOCC1)OCCCOc1nc(ncc1Cl)N2 [E110, 14-Chloro-4-methyl-5-(oxan-4-yl)-8,12-dioxa-2,5,6,16,17-pentaazatricyclo[11.3.1.0^3,7]heptadeca-1(16),3,6,13(17),14-pentaene] | ≤ 100 | ≤ 100
7 | FC(F)c1c2c(nn1C1CCOCC1)OCCCNc1nc(ncc1Cl)N2 [E112, 4-Chloro-4-(difluoromethyl)-5-(oxan-4-yl)-8-oxa-2,5,6,12,16,17-hexaazatricyclo[11.3.1.0^3,7]heptadeca-1(16),3,6,13(17),14-pentaene] | ≤ 100 | ≤ 100
8 | COCCn1nc2c(c1C)Nc1ncc(Cl)c(n1)NCCCO2 [E116, 14-Chloro-5-(2-methoxyethyl)-4-methyl-8-oxa-2,5,6,12,16,17-hexaazatricyclo[11.3.1.0^3,7]heptadeca-1(16),3,6,13(17),14-pentaene] | ≤ 100 | ≤ 100

Now from value to molecule:

Row | IC50 [1] [nM] | IC50 [2] [nM] | SMILES
9 | ≤ 100 | ≤ 100 | Cc1c2c(nn1C1CCOCC1)OCCCOc1nc(ncc1C(F)(F)F)N2 [E117, 4-Methyl-5-(oxan-4-yl)-14-(trifluoromethyl)-8,12-dioxa-2,5,6, 16,17-pentaazatricyclo[11.3.1.0^3,7]heptadeca-1(16),3,6,13(17),14-pentaene]
10 | ≤ 100 | ≤ 100 | FC(F)(F)c1cnc2nc1NCCCOc1nn(C3CCCOC3)cc1N2 (centres unmarked) [E130, 5-(Oxan-3-yl)-14-(trifluoromethyl)-8-oxa-2,5,6,12,16,17-hexaaza tricyclo[11.3.1.0^3,7]heptadeca-1(16),3,6,13(17),14-pentaene]
11 | ≤ 100 | ≤ 100 | Cc1c2c(nn1C1CCOCC1)OCCCNc1cc(ncc1Cl)N2 [E134, 14-Chloro-4-methyl-5-(oxan-4-yl)-8-oxa-2,5,6,12,16-pentaaza tricyclo[11.3.1.0^3,7]heptadeca-1(16),3,6,13(17),14-pentaene]
12 | ≤ 100 | ≤ 100 | CCOC(=O)C(C)(C)n1nc2c(c1C)Nc1ncc(Cl)c(n1)NCCCO2 [E188]
13 | ≤ 10000 | > 10000 | Cc1c2c(nn1C(C)(C)C(=O)O)OCCCNc1nc(ncc1Cl)N2 [E189, 2-{14-Chloro-4-methyl-8-oxa-2,5,6,12,16,17-hexaazatricyclo [11.3.1.0^3,7]heptadeca-1(16),3,6,13(17),14-pentaen-5-yl}-2-methylpropanoic acid]
